Key:
DuPro = test: MTT assay, cell growth inhibition, DuPro; format: cell-based; settings: Homo sapiens, 144 h, 6 days with drug, read-out: ID50 DuPro
Source text: (§1) To assess the utility of the subject compounds in the treatment of neoplastic cell growth, the ability of the compounds to inhibit the in vitro growth characteristics of several commonly used cancer models were studied. The subject polyamines induce cell growth inhibitions in several cultured human prostate tumor cell lines such as LnCap, DuPro, and PC-3 as determined by the accepted MTT assay (Table 2) (Hansen, M. B. et al., “Re-examination and further development of a precise and rapid dye method for measuring cell growth/cell kill,” J. Immunol. Methods (1989)119(2):203-10). […] The results with the DuPro cell line are representative of the results with human prostate cell lines.
(§2) For the data shown in Table 2, an accepted MTT assay protocol was used. A trypsinized cell suspension was diluted to seed 80 μl suspension containing 500 cells in each well of a 96 well microtiter plates and incubated overnight at 37° C. in a humidified incubator in 5% CO2. Twenty μl of appropriately diluted stock solution of each drug was added to the middle 8 columns of cell suspension in the microtiter plates. Each drug concentration was run in quadruplicate. Outer columns of the plates were used for buffer controls. Cells were incubated with the drug for 6 days at 37° C. in 5% CO2/H2O atmosphere. Twenty five μl of 5 mg/ml solution of 3-(4,5-dimethythiazol-2-yl)-2,5-diphenyl tetrazolium bromide (MTT) was added to each well and incubated for 4 hours at 37° C. in 5% CO2/H2O incubator. Cells were lysed by incubating overnight with 100 μl lysis buffer (500 ml of the lysis buffer containing: 100 g lauryl sulfate (SDS), 250 ml of N,N-dimethyl formamide in 2 ml of glacial acetic acid, pH 4.8). The color was monitored at room temperature at 570 nm in a E-max Precision Microplate Reader (Molecular Devices Corporation, Sunnyvale, Calif.) and data were analyzed using cell survival software supplied by Molecular Devices Corporation.

PC-3 = test: MTT assay, cell growth inhibition, PC-3; format: cell-based; settings: Homo sapiens, PC-3, 144 h, 6 days with drug, read-out: ID50 PC-3
Source text: as §1, §2

LnCap = test: MTT assay, cell growth inhibition, LnCap; format: cell-based; settings: Homo sapiens, 144 h, 6 days with drug, read-out: ID50 LnCap
Source text: as §1, §2

DuPro cells = test: Intracellular polyamine and analog levels by HPLC of dansylated extracts; format: cell-based, human
Description: For data shown in Tables 3a and 3b, intracellular polyamine levels were determined using a standard protocol. About 0.5-1×10^6 cells were taken from harvested samples and centrifuged at 1000 rpm at 4° C. for 5 min. The cells were washed twice with chilled Dulbecco's isotonic phosphate buffer (pH 7.4) by centrifugation at 1000 rpm at 4° C. and resuspended in the same buffer. After the final centrifugation, the supernatant was decanted, and 250 μl of 8% sulfosalycilic acid was added to the cell pellet. The cells were then sonicated, and the mixture was kept at 4° C. for at least 1 h. After centrifugation at 8,000 g for 5 min, the supernatant was removed for analysis. An appropriate volume (50-100 μl) was fluorescence-labeled by derivatizing with dansyl chloride. Labeled polyamines were loaded onto a C-18 high-performance liquid chromatography column and separated by gradient elution with acetonitrile/water at 50° C. Peaks were detected and quantitated using a Shimadzu HPLC fluorescence monitor coupled with a Spectra-Physics peak integrator. Because polyamine levels vary with environmental conditions, control cultures were sampled for each experiment.

[1] = inorganic phosphate released from 100 μM ATP in 24 hour, 37° C.
Description: In a 96 well microtiter plate, the first two columns were routinely used for standard curve generation. For the standard curve, 40 μl of 0-70 μM phosphate buffer was used by serially diluting 1 mM NaH2PO4 solution in 1 N HCl. For ATP hydrolysis, the rest of the microtiter plate was equally divided into two sections to run two analogs at a time. Each section was divided into the appropriate number of columns to serially dilute each analog between 0-10 mM in 29 μl 2N HCl for the final concentration of 2 N HCl. Each drug concentration was run in quadruplicate. Equal volumes of 500 μM ATP solution (pH 7.5) were added to each well and the plates were incubated at 37° C. for appropriate lengths of time between 2-24 h. At the end of the incubation period, 160 μl of coloring agent (0.045% Malachite Green in water and 4.2% ammonium molybdate in 4 N HCl (3:1 v/v)) was added and the plates were incubated at 37° C. for another 30 mins. All plates were read at 595 nm using a Emax precision microplate reader (Molecular Device, San Jose, Calif.). A control plate containing analog solutions without ATP was created for each experiment. Control plate reading was subtracted from each experimental plate and all data was normalized to ATP hydrolysis at zero concentration of polyamine analog. The average and standard deviation for quadruplicate runs were plotted.

[2] = 1 μM analog, Day 4 of Treatment
[3] = 1 μM analog, Day 6 of Treatment
[4] = 2 μM analog, Day 4 of Treatment
[5] = 2 μM analog, Day 6 of Treatment
[6] = 0.5 μM analog, Day 4 of Treatment
[7] = 0.5 μM analog, Day 6 of Treatment

CCCCCCCCCCCCCC1CC(=O)NCCCNCCCCNCCCN1 (stereo not drawn) [SL-11174]
IC50 (DuPro): 0.83 µM
IC50 (PC-3): 0.6 µM
IC50 (LnCap): 2.2 µM
Analog level (uptake) (DuPro cells; [2]): 2.788 nmoles/10^6 cells
Spm (spermine) level (DuPro cells; [2]): 0.002 nmoles/10^6 cells
Analog level (uptake) (DuPro cells; [3]): 17.206 nmoles/10^6 cells
Spm (spermine) level (DuPro cells; [3]): 0.001 nmoles/10^6 cells
Analog level (uptake) (DuPro cells; [4]): 25.074 nmoles/10^6 cells
Spm (spermine) level (DuPro cells; [4]): 0.001 nmoles/10^6 cells
Analog level (uptake) (DuPro cells; [5]): 21.472 nmoles/10^6 cells
Spm (spermine) level (DuPro cells; [5]): 0.0021 nmoles/10^6 cells

CCCCCCCCCCCCCC1CC(=O)NCCCNCCCNCCCN1 (stereo not drawn) [SL-11197]
IC50 (DuPro): 0.58 µM
IC50 (PC-3): 0.5 µM
IC50 (LnCap): 2.6 µM
Analog level (uptake) (DuPro cells; [6]): 47.566 nmoles/10^6 cells
Spm (spermine) level (DuPro cells; [6]): 0.004 nmoles/10^6 cells
Analog level (uptake) (DuPro cells; [7]): 35.913 nmoles/10^6 cells
Spm (spermine) level (DuPro cells; [7]): 0.002 nmoles/10^6 cells
Analog level (uptake) (DuPro cells; [4]): 49.072 nmoles/10^6 cells
Analog level (uptake) (DuPro cells; [5]): 42.341 nmoles/10^6 cells

CCCCCCCCCCCCCC1CC(=O)NCCCNCCCCCNCCCN1 (stereo not drawn) [SL-11199]
IC50 (DuPro): 1.2 µM
IC50 (PC-3): 1.4 µM
IC50 (LnCap): 1.5 µM
Analog level (uptake) (DuPro cells; [6]): 26.959 nmoles/10^6 cells
Spm (spermine) level (DuPro cells; [6]): 0.002 nmoles/10^6 cells
Analog level (uptake) (DuPro cells; [7]): 26.841 nmoles/10^6 cells
Spd (spermidine) level (DuPro cells; [7]): 0.005 nmoles/10^6 cells
Spm (spermine) level (DuPro cells; [7]): 0.003 nmoles/10^6 cells
Analog level (uptake) (DuPro cells; [4]): 17.198 nmoles/10^6 cells
Analog level (uptake) (DuPro cells; [5]): 10.241 nmoles/10^6 cells

CCCCCCCCCCCCCC1CC(=O)NCCCNCCCNCCCNCCCN1 (stereo not drawn) [SL-11200]
IC50 (DuPro): 1.4 µM
IC50 (PC-3): 1.3 µM
Analog level (uptake) (DuPro cells; [2]): 10.089 nmoles/10^6 cells
Put (putrescine) level (DuPro cells; [2]): 0.004 nmoles/10^6 cells
Spd (spermidine) level (DuPro cells; [2]): 0.029 nmoles/10^6 cells
Spm (spermine) level (DuPro cells; [2]): 0.089 nmoles/10^6 cells
Analog level (uptake) (DuPro cells; [3]): 46.776 nmoles/10^6 cells
Spd (spermidine) level (DuPro cells; [3]): 0.014 nmoles/10^6 cells
Spm (spermine) level (DuPro cells; [3]): 0.043 nmoles/10^6 cells
Analog level (uptake) (DuPro cells; [4]): 5.989 nmoles/10^6 cells
Put (putrescine) level (DuPro cells; [4]): 0.020 nmoles/10^6 cells
Spd (spermidine) level (DuPro cells; [4]): 0.027 nmoles/10^6 cells
Spm (spermine) level (DuPro cells; [4]): 0.095 nmoles/10^6 cells
Analog level (uptake) (DuPro cells; [5]): 49.309 nmoles/10^6 cells
Put (putrescine) level (DuPro cells; [5]): 0.011 nmoles/10^6 cells
Spd (spermidine) level (DuPro cells; [5]): 0.018 nmoles/10^6 cells
Spm (spermine) level (DuPro cells; [5]): 0.053 nmoles/10^6 cells

NCCCNCCCCNCCCN [spermine]
hydrolysis of ATP [1]: lack of ATP hydrolysis
